Measured values reported in PMC9546084, “Effects of Unsuppressed Endogenous Insulin on Pharmacokinetics and/or Pharmacodynamics of Study Insulin in the Healthy: A Retrospective Study” (Clinical Pharmacology in Drug Development, 2022).

Experiments:
[1] = PK corrected by C-peptide; cited from earlier work
Experimental: In studies in which specific assays for the tested insulin are lacking, C‐peptide was always used to correct endogenous insulin.[37], [38] Some researchers[39] still doubted the use of C‐peptide to correct endogenous insulin because some PK parameters were not consistent (eg, a peak of glargine in plasma occurring at 12 hours[40] differs from those observed in subjects with type 1 diabetes where the increase occurs between ≈3 and 6 hours after the first injection[41] and at steady state[42]). Owens[19] reported the exogenous insulin estimated from C‐peptide was nearly the same as what was true ...

[2] = pharmacokinetics of insulin aspart during the euglycemic clamp (UPLC-MS/MS); assay type: in vivo, healthy Chinese male volunteers; conditions: 0.2 IU/kg s.c., mean ± SD; for CIAsp,max (maximum plasma concentration of IAsp): UPLC-MS/MS
Experimental: (§1) From 3 days before the dosing day on, participants were instructed to abstain from drinking alcohol, smoking tobacco, engaging in strenuous exercise, and ingesting caffeine. Participants came to the research center at approximately 6:00 PM the day before drug administration to ensure an overnight fasting condition of 10 to 12 hours the next morning. Throughout the clamp, the subjects remained fasting and in a supine position. A 20‐gauge polyethylene cannula was inserted into an antecubital vein for infusion of 20% dextrose, and a second 18‐gauge catheter was inserted retrogradely into a wrist vein on the dorsum of the hand to draw blood. The hand for blood drawing was maintained continuously in a heated blanket at 55 to 65°C, allowing sampling of arterialized venous blood. After recording the basal blood glucose level (defined as the mean of the glucose measurement at −30, −20, and −10 minutes), the subjects received a 0.2 IU/kg dose of NovoRapid (Novo Nordisk, Bagsværd, Denmark) by subcutaneous injection into a lifted abdominal skin fold. Blood samples were obtained at the bedside for immediate determination of whole blood glucose concentrations every 5 minutes from 0 to 240 minutes and every 10 minutes from 240 to 480 minutes. During the manual euglycemic clamp procedure, the glucose infusion rate (GIR) was adjusted on the basis of the obtained glucose measurements to maintain euglycemia. A 4‐mL blood sample was collected at each of the following points for analysis of C‐peptide, human insulin, and IAsp levels: −30 and 0 minutes (before dosing) and 10, 20, 30, 40, 50, 60, 90, 120, 150, 180, 210, 240, 270, 300, 360, 420, and 480 minutes after dosing. The baselines for each of C‐peptide, human insulin, and IAsp were defined as the mean of the −30 and 0 minute (before dosing) measurements.
(§2) Whole blood glucose concentrations were tested with a glucose analyzer (Biosen C_line GP+, Neckar Healthcare, Co., Ltd., Magdeburg, Germany) using an automated glucose oxidase technique with a measuring range of 9 to 900 mg/dL and a high precision of 1.5%. Human insulin levels were determined using an ultrasensitive enzyme‐linked immunosorbent assay (ELISA) with monoclonal antibodies that have little or no cross‐reactivity to insulin analogs whose ranges of quantification were 0.0065 to 0.87 ng/mL for human insulin.[22] C‐peptide levels were analyzed using a solid‐phase 2‐site ELISA method based on the direct sandwich technique in which 2 monoclonal antibodies are directed against separate antigenic determinants on the C‐peptide molecule with a measuring range of 0.06 to 9 ng/mL, with an intra‐assay coefficient of variation of 2.87% to 4.50%.[23] IAsp concentrations were assessed by means of an ultra‐performance liquid chromatography–tandem mass spectrometry method, [25] at Covance Laboratories in Shanghai that had no detectable cross‐reactivity with human insulin. Solid‐phase extraction was performed. Liquid chromatography separation was achieved using an Acquity UPLC CSH C18+ column (50 × 2.1 × 1.7 μm; Waters Corp., Milford, Massachusetts). A 20‐μL injection with a 0.60 mL/min flow of water with 0.1% of acetic acid (solvent A) and acetonitrile with 0.1% of acetic acid (solvent B) was used. The gradient elution was as follows: the initial 17.5% B was increased to 29.5% over 3.0 minutes, 29.5% to 50.0% over 0.5 minutes, 50% to 98% over 0.5 minutes, remained at 98% for 1.5 minutes, and returned to initial conditions over 0.5 minute. A mass spectrometer used in the positive ionization mode (ESI+) was used for the analysis of the compounds. […] The cone voltage and collision energy were adjusted to maximize the intensity of the protonated ion and to optimize the signal of aspart insulin: m/z 1133.4→971.8 and for the internal standard bovine insulin 1123.5→963.8. The lower limit of quantification was 0.2 ng/mL, the inter‐ and intravariability were 7.0% and 7.9%, respectively. […]

[3] = manual euglycemic clamp, glucose infusion rate (PD) after subcutaneous insulin aspart; assay type: in vivo, healthy Chinese male volunteers; conditions: for GIRmax (maximum glucose infusion rate): 0.2 IU/kg NovoRapid s.c., 8-hour manual euglycemic clamp; for GIRmax (maximum glucose infusion rate) / tGIRmax (time of GIRmax) / AUCGIR,0-8h: mean ± SD; for GIR AUC from time 0.5 to 2 hours after correction for clamped glucose from 0.5 to 2 hours / AUCGIR,0-8h after correction for the overall clamped glucose / tGIRmax (time of GIRmax) / AUCGIR,0-8h: 0.2 IU/kg s.c.; for AUCGIR,0-8h after correction for the overall clamped glucose: analysis of variance with clamped glucose as covariate; for AUCGIR,0-8h: uncorrected
Experimental: as §1, §2

[4] = adverse reactions/events during clamp and follow-up; assay type: in vivo, healthy Chinese male volunteers; conditions: 33 healthy men; 0.2 IU/kg s.c.; clamp procedures and follow-up period
Text: Thirty‐three healthy male volunteers (22 in group A and 11 in group B) undergoing a manual euglycemic clamp study were enrolled in this study.

| Substance | time of peak of glargine in plasma [1] [h] | CIAsp,max (maximum plasma concentration of IAsp) ([2]; group A (n = 22)) [ng/mL] | AUCIAsp,0-8h ([2]; group A (n = 22)) [ng·min/mL] | time of CIAsp,max ([2]; group A (n = 22)) [min] | CIAsp,max (maximum plasma concentration of IAsp) ([2]; group B (n = 11)) [ng/mL] | AUCIAsp,0-8h ([2]; group B (n = 11)) [ng·min/mL] | time of CIAsp,max ([2]; group B (n = 11)) [min] | GIRmax (maximum glucose infusion rate) ([3]; group A ((CPpostdosing)max > CPbaseline, n = 22)) [mg/kg/min] | GIR AUC from time 0.5 to 2 hours after correction for clamped glucose from 0.5 to 2 hours ([3]; group A (n = 22)) [mg/kg] | AUCGIR,0-8h after correction for the overall clamped glucose ([3]; group A (n = 22)) [mg/kg] | tGIRmax (time of GIRmax) ([3]; group A (n = 22)) [min] | AUCGIR,0-8h ([3]; group A (n = 22)) [mg/kg] | GIRmax (maximum glucose infusion rate) ([3]; group B ((CPpostdosing)max ≤ CPbaseline, n = 11)) [mg/kg/min] | GIR AUC from time 0.5 to 2 hours after correction for clamped glucose from 0.5 to 2 hours ([3]; group B (n = 11)) [mg/kg] | AUCGIR,0-8h after correction for the overall clamped glucose ([3]; group B (n = 11)) [mg/kg] | tGIRmax (time of GIRmax) ([3]; group B (n = 11)) [min] | AUCGIR,0-8h ([3]; group B (n = 11)) [mg/kg] | adverse reaction after injection [4] |
| --- | --- | --- | --- | --- | --- | --- | --- | --- | --- | --- | --- | --- | --- | --- | --- | --- | --- | --- |
| glargine | 12 | – | – | – | – | – | – | – | – | – | – | – | – | – | – | – | – | – |
| insulin aspart [IAsp] | – | 4.72 ± 1.46 | 527 ± 97.1 | 44.8 ± 11.0 | 5.53 ± 1.61 | 543 ± 97.2 | 47.3 ± 11.0 | 8.46 ± 2.43 | 596 ± 38 | 1789 ± 107 | 111 ± 40.6 | 1815 ± 551 | 7.90 ± 1.68 | 520 ± 56 | 1380 ± 157 | 113 ± 33.9 | 1327 ± 306 | no adverse reaction in any subject |
